{"source": "patent US7521432B2", "about": "“Compositions and methods for identifying agents which regulate chromosomal stability, gene activation and aging” (priority 2000, dated 2009)", "molecular_target": "HST2 (Saccharomyces cerevisiae, UniProt P53686)", "sequence (P53686 whole entry)": "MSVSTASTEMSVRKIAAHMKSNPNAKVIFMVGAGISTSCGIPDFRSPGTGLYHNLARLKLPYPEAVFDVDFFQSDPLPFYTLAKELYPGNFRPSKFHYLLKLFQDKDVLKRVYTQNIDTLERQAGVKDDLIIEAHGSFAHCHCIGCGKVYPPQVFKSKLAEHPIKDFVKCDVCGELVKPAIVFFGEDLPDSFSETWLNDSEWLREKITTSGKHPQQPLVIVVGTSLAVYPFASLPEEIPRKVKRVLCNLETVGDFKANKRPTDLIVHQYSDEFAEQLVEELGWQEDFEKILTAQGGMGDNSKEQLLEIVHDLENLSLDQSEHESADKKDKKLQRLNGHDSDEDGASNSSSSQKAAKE", "experiment": "Rapid-reaction single turnover quench-flow analysis", "assay_type": "biochemical, yeast", "conditions": "HST2, excess NAD^+, sub-stoichiometric [^3H]-AcLys14 H3, 22±3° C., pH 7.5, single exponential fit", "excerpt": "FIGS. 5A-5C are a series of graphs showing that acetate is not a primary product of HST2-catalyzed histone/protein deacetylation. H3 peptide was stoichiometrically acetylated on Lys-14 by the histone acetyltransferase P/CAF and using [^3H]-AcCoA. Monoacetylated [^3H]-AcLys-14 H3 peptide was then purified by HPLC (FIG. 5A) and utilized as a substrate in the HST2 deacetylation reactions (FIG. 5B). Upon complete consumption of [^3H]-AcLys-14 H3 by HST2, all of the original [^3H] from H3 peptide was converted to a labeled product that eluted much later than authentic acetate. Conditions: 375 nM HST2, 175 μM NAD^+, 5 μM [^3H]-Lys14 AcH3, 1 mM DTT, for 1 min at 37° C. prior to quenching with TFA to a final concentration of 1%. FIG. 5C: Single turnover rapid quench-flow analysis. […] Quantification of [^3H]-AcLys14 H3 peptide (diamonds) and the [^3H]-acetate-adduct (circles) was accomplished by liquid scintillation counting of these species separated using reverse phase HPLC. […]\nP/CAF [^3H]-monoacetylation of H3 peptide. […] Every mass spectrum was recorded as the sum of 20 consecutive spectra, each produced by a single pulse of photons. […] The amount of [^3H]-AcLys14 H3 peptide and [^3H]-O-acetyl ADP ribose was determined by liquid scintillation counting of these species separated on reverse phase HPLC. […]", "data": [{"substance": "O-acetyl-ADP ribose", "values": [{"measurement": "rate constant of acetate-adduct formation", "result": "2.3 ± 0.2", "unit": "s⁻¹"}]}]}
